Measurements published in article PMC5063576, “High Potency VEGFRs/MET/FMS Triple Blockade by TAS-115 Concomitantly Suppresses Tumor Progression and Bone Destruction in Tumor-Induced Bone Disease Model with Lung Carcinoma Cells” (PLoS ONE, 2016).

Columns and labels:
[1] = molecular target: T1, Recombinant human FMS dephosphorylated with lambda phosphatase (dephospho-rhFMS) (Homo sapiens, UniProt P07333); assay: In vitro kinase assay, recombinant dephospho-FMS (LANCE Ultra TR-FRET); type: biochemical; details: 100 μM ATP
T1 sequence (P07333 538-972): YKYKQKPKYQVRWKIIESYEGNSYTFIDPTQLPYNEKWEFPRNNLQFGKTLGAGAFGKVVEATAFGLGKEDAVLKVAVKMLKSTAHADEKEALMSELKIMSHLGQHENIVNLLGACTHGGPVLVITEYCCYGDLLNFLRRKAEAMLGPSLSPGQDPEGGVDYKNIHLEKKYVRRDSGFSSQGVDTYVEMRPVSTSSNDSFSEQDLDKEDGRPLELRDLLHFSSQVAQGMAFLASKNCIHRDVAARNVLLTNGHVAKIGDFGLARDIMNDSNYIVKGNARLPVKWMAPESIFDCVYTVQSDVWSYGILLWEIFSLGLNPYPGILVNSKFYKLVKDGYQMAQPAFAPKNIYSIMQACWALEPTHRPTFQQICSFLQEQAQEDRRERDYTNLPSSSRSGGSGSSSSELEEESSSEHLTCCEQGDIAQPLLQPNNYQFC
Procedure: Enzyme inhibition studies were performed using LANCE® Ultra TR-FRET assay technology. Briefly, 0.03 μg/mL dephospho-rhFMS and 100 nM ULightTM-poly GT (4:1) (PerkinElmer) were mixed and incubated for 40 min at 25°C in 10 μL of reaction mixture containing 100 μM ATP, 15 mM tris (hydroxymethyl) aminomethane (Tris (pH 7.5)), 0.01% (v/v) Tween 20, 5 mM MgCl2, 2 mM dithiothreitol and various concentrations of the test compound. […] By referring to the TR-FRET signals of positive (no inhibitor) and negative (EDTA was added before the reaction was started) control wells, the percent inhibition of each well was calculated and the half-maximal inhibitory concentration (IC50) value was determined using a four-parameter sigmoidal equation. The assay of MET and VEGFR2 kinase activity was performed as described previously.

[2] = tested on: FMS, ERK1/2 and AKT phosphorylation in MDBMs; assay: In vitro MDBM signaling, M-CSF-stimulated FMS phosphorylation; type: cell-based, mouse; details: Western blotting, cabozantinib, crizotinib at 0.3 μM, sunitinib positive control compared with TAS-115
Procedure: For analysis of the expression and phosphorylation levels of FMS, MET and VEGFR2, MDBMs were cultured with hM-CSF (20000 U/mL) for 4 days (400000 cells/dish in Suspension Culture Dishes (Corning Inc., NY). The phosphorylation levels of FMS and downstream signaling molecules were then analyzed in these MDBMs following incubation for 1 hr with test compounds at the indicated concentration. The phosphorylation of MET or VEGFR2 was analyzed in these MDBMs following stimulation with rhHGF (100 ng/mL, 10 min) or rhVEGF (100 ng/mL, 5 min), respectively. After incubation, the MDBMs were harvested, the cells were lysed and target signaling proteins were detected by immunoblotting. For analysis of VEGFR2 and its phosphorylated form, the lysate was immunoprecipiated with an anti-VEGFR antibody prior to immunoblotting.

[3] = tested on: A549-Luc-BM1-implanted tibia; assay: Bone morphometrical analyses by micro-CT; type: in vivo, BALB/c nude mice; details: for A549-Luc-BM1-induced changes in bone parameters (BV, TV, BMD, vBMD): micro-CT after 4 weeks dosing, TAS-115 200, cabozantinib 15, sunitinib 40, crizotinib 100 mg/kg oral, vs control
Procedure: On day 29, the mice were euthanized by cervical dislocation under isoflurane anesthesia, and subsequently the A549-Luc-BM1-implanted tibia was removed and was fixed in 4% paraformaldehyde solution. Micro-CT imaging was performed by using Rm_CT2 (Rigaku corporation, Tokyo, Japan) with the following parameters: 90 kV, 160 μA, 3 min exposure, 10 mm field of view (20 μm voxel size). After scanning, 3D reconstruction was performed to produce a series of cross-sectional images by using specific software (3D Viewer Version 3.00.01, Rigaku corporation). In addition, bone mineral density (BMD) and 3D morphometrical primary parameters, including total volume (TV) and bone volume (BV), were calculated by using bone microstructure software (TRI/3D-BON-FCS64, Ratoc System Engineering, Tokyo, Japan). Volumetric BMD (vBMD), which has been reported to be a good index of osteoporosis, was calculated from primary parameters using the following formula: vBMD = BMD × BV / TV.

[4] = tested on: A549-Luc-BM1 cells in the mouse tibia; assay: Tumor-induced bone disease model, intra-tibial A549-Luc-BM1, bioluminescence imaging; type: in vivo, BALB/c nude mice; details: for tumor growth inhibition percentage (TGI): day 28, 4 weeks, oral once daily TAS-115 200 mg/kg, cabozantinib 15 mg/kg, sunitinib 40 mg/kg, crizotinib 100 mg/kg, ZA 0.2 mg/kg s.c. twice weekly
Procedure: Tumor growth in the tibiae was monitored by bioluminescence imaging using an IVIS Lumina II Imaging System (PerkinElmer, MA). […] Images were analyzed using the Living Image 3.1 software (PerkinElmer). Total photon flux (TP) was calculated by summation of the photon flux of ventral and right lateral images. One week post tumor implantation, 8–9 animals were allocated to each experimental group by a stratified randomization method with SAS version 9.2 (SAS Institute Japan, Tokyo, Japan) using TP as an allocation parameter, following which drug treatment was then started. […] The doses of each drug were selected based on the maximum tolerated dose (MTD) in in-house studies (data not shown). […] Zoledronic acid (ZA) was subcutaneously injected twice weekly for 4 weeks at a dose of 0.2 mg/kg, which was a previously reported efficacious dose. The allocation day was set as day 0, and drug administration was initiated from day 1. As an indicator of changes in tumor growth during the dosing period, relative total photon flux (RTP), was calculated according to the following formula: RTPday n = (TP on each measurement day) / (TPday 0) × 100. TPday 0 is the TP on the allocation day.

[5] = tested on: A549-Luc-BM1-implanted tibiae; assay: CD31 staining, microvessel density in bone lesion; type: in vivo, BALB/c nude mice; details: 2 weeks oral; TAS-115 100 mg/kg, cabozantinib 15, crizotinib 100, sunitinib 40 mg/kg; vs control
Procedure: (§1) On day 15, the mice were euthanized by cervical dislocation under isoflurane anesthesia, and their tibiae were collected. For CD31 staining, frozen sections (3 μm thick) were prepared using Kawamoto’s film method. Purified Rat Anti-Mouse CD31 (1:100, BD Pharmingen^TM) was detected using Simple Stain^TM Mouse MAX PO (Rat) (Nichirei) and 3,3’-diaminobenzidine (Dako, Glostrup, Denmark). For Ki-67 and TRAP staining, formalin-fixed paraffin-embedded sections (2 μm thick) were prepared. Anti-human Ki-67 Rabbit Monoclonal Antibody (1:50, Epitomics) was detected using the EnVisionTM^+ System (Dako). TRAP staining was performed using the TRAP/ALP Stain Kit (Wako Pure chemical Industries, Ltd.). To quantify each staining, whole slides were scanned under 20× magnification with the Aperio Scan-Scope XT Slide Scanner (Aperio Technologies, Inc., CA). To quantify CD31-positive microvessels as microvessel density (MVD, number/mm^2), four fields of tumor area per section excluding bone and necrotic tissue were analyzed by using Image-Pro Plus (Media Cybernetics, Inc., Carlsbad, CA). The mean values of the four areas were considered as the MVD of each animal. […] Ki-67-positive cells and total tumor cells were counted by using Image-Pro Plus. The Ki-67 index is expressed as a percentage (the number of Ki-67-positive tumor cells / the total number of the tumor cells × 100). The numbers of TRAP-positive osteoclasts were counted, and are expressed as the TRAP-positive osteoclast labeling index, (the number of TRAP-positive cells / the length of the boundary between tumor and trabecular bone (number/mm)). Cells that were TRAP-positive, had more than one nucleus, and were found on the surface of the bone, were identified as osteoclasts. The boundary length was calculated by Image-Pro Plus. All histopathological analyses were conducted in a blinded manner.

[6] = tested on: TRAP-positive osteoclasts at tumor-bone boundary; assay: TRAP staining of A549-Luc-BM1-implanted tibiae, osteoclast number; type: in vivo, BALB/c nude mice; details: 2 weeks oral; TAS-115 200, cabozantinib 15, sunitinib 40, crizotinib 100 mg/kg, combination; vs control
Procedure: as §1, with “CA).” for “CA). The mean values of the four areas were considered as the MVD of each animal.”, “The numbers of TRAP-positive osteoclasts were counted, and are expressed as the TRAP-positive osteoclast labeling index, (the number of TRAP-positive cells / the length of the boundary between tumor and trabecular bone (number/mm)). Cells that were TRAP-positive, had more than one nucleus, and were found on the surface of the bone, were identified as osteoclasts.” left out, “All histopathological analyses were conducted in a blinded manner.” left out

[7] = tested on: M-CSF dependent bone marrow macrophages (MDBMs); assay: In vitro osteoclast differentiation assay (TRAP activity); type: cell-based, mouse; details: MDBMs with hM-CSF and rhsRANKL for 4 days
Procedure: To prepare macrophage colony-stimulating factor (M-CSF) dependent bone marrow macrophages (MDBMs), bone marrow cells were obtained from the femurs of male BALB/c mice (CLEA Japan) and adherent cells were cultured with human M-CSF (hM-CSF; 10000 U/mL) for 6 days. MDBMs were collected and cultured with hM-CSF (10000 U/mL) and recombinant human soluble RANKL (rhsRANKL)-GST (5 nM) for 4 days (25000 cells/well in a 96 well flat plate) for induction of differentiation into osteoclasts. Test compounds were then added to the culture media at the indicated concentration. TRAP activities were measured using the commercially available TRACP and ALP Assay Kit (TAKARA BIO INC).

[8] = Body weight change in the bone disease model; type: in vivo, BALB/c nude mice; details: 4 weeks of treatment; TAS-115 200 mg/kg, crizotinib 100 mg/kg, sunitinib 40 mg/kg with crizotinib 100 mg/kg, oral once daily
Procedure: Changes in body weight (BW) during the dosing period were determined using body weight change (BWC; %) as an indicator, which was calculated using the following formula: BWC; % = 100 × ((BW on each measurement day)–(BWday 0)) / (BWday 0). BWday 0 is the BW on the allocation day. The schedule for the in vivo study is depicted in the Supporting Information (S1 Fig).

A549-Luc-BM1 cells = assay: Proliferation of A549-Luc-BM1 cells (CellTiter-Glo); type: cell-based; details: Homo sapiens, 72 hr post drug addition, read-out: 50% growth inhibitory concentration (GI50) for A549-Luc-BM1 cells
Procedure: Supplementary file pone.0164830.s002.tif: S2 Fig The effect of TAS-115 on the proliferation of A549-Luc-BM1 cells. A549-Luc-BM1 cells were seeded on 96 well plates at a density of 10^3 cells/well in RPMI1640 containing 10% FBS. […] At 72 hr post drug addition, cell viability was determined using CellTiter-Glo^TM. The 50% growth inhibition (GI50) values were determined using SAS version 9.2. (TIF) Click here for additional data file.

SMILES | IC50 [1] | inhibition of M-CSF-stimulated phosphorylation of FMS, ERK1/2 and AKT (in words) [2] | A549-Luc-BM1-induced changes in bone parameters (BV, TV, BMD, vBMD) [3] | tumor growth inhibition percentage (TGI) [4] | microvessel density (MVD) within the tumor area in the bone lesion [5] | number of TRAP-positive osteoclasts at tumor-bone boundary [6] | concentration that potently inhibited / markedly affected RANKL and M-CSF-induced mouse osteoclast formation [7] | effect on body weight [8] | GI50 (A549-Luc-BM1 cells) | effect on tumor growth in the tibia (bioluminescence) ([4]; crizotinib 100 mg/kg oral once daily for 4 weeks) | total volume (TV) compared with the control group ([3]; micro-CT, ZA 0.2 mg/kg s.c. twice weekly for 4 weeks) | BMD, BV, and vBMD compared with control ([3]; micro-CT, ZA 0.2 mg/kg s.c. twice weekly for 4 weeks, each value higher than normal group)
COc1cc2nccc(Oc3ccc(NC(=O)C4(C(=O)Nc5ccc(F)cc5)CC4)cc3)c2cc1OC [Cabozantinib] | 79 nM | moderate | significantly suppressed all of the changes | 73% | significantly reduced | did not affect | – | – | – | – | – | –
C[C@@H](Oc1cc(-c2cnn(C3CCNCC3)c2)cnc1N)c1c(Cl)ccc(F)c1Cl [Crizotinib] | – | moderate | did not affect any changes in the parameters | – | did not affect | – | 1 µM | did suppress body weight gain | 1100 nM | did not impact on tumor growth at all | – | –
CCN(CC)CCNC(=O)c1c(C)[nH]c(/C=C2\C(=O)Nc3ccc(F)cc32)c1C [Sunitinib] | – | comparable | significantly inhibited A549-Luc-BM1-induced changes in BV and TV, but not in BMD or vBMD | 75% | significantly reduced | – | – | – | – | – | – | –
O=P(O)(O)C(O)(Cn1ccnc1)P(=O)(O)O [ZA, zoledronic acid] | – | – | – | 27% | – | – | – | – | – | – | significantly decreased | significantly increased
